Key:
[1] = test system: P. falciparum male gametocytes; test: P. falciparum Dual Gamete Formation Assay (PfDGFA), male readout (exflagellation); format: cell-based, Plasmodium falciparum NF54; settings: for Average inhibition male (%): average of replicates; for % inhibition male (individual replicates) R1: replicate R1; for % inhibition male (individual replicates) R3: replicate R3; for % inhibition male (individual replicates) R4: replicate R4; for Activity: hit = >50% inhibition in male or female readout in at least 3 replicates, 0 = no class assigned
Summary of the method: (§1)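 NF54 mature gametocytes (d14), cpd 24 h 37°C hypoxic gas; trigger: xanthurenic acid ookinete medium + Cy3 anti-Pfs25, 4°C 4 min → 28°C 4 min. Male: exflagellation centres, brightfield x6. Female: Pfs25+ gametes, fluorescence, +24 h 28°C dark.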

[2] = test system: P. falciparum female gametocytes; test: P. falciparum Dual Gamete Formation Assay (PfDGFA), female readout (Pfs25-positive female gametes); format: cell-based, Plasmodium falciparum NF54; settings: for Average inhibition female (%): average of replicates; for % inhibition female (individual replicates) R1: replicate R1; for % inhibition female (individual replicates) R3: replicate R3; for % inhibition female (individual replicates) R4: replicate R4
Summary of the method: as §1

[3] = 2µM, 24h preincubation with gametocytes prior to induction of gametogenesis
[4] = 2µM, 24h preincubation, number of replicates with >50% inhibition in the male readout
[5] = 2µM, 24h preincubation, number of replicates with >50% inhibition in the female readout
[6] = PfDGFA at 2µM, 24h preincubation with gametocytes prior to induction of gametogenesis
[7] = PfDGFA at 2µM, 24h preincubation
[8] = 2µM, 24h preincubation, hits selected on >50% inhibition in the male readout across replicates
[9] = 2µM, 24h preincubation, hits selected on >50% inhibition in the female readout across replicates
[10] = PfDGFA at 2µM, 24h preincubation with gametocytes
[11] = number of replicates with >50% inhibition in the male readout, 2µM
[12] = number of replicates with >50% inhibition in the female readout, 2µM

Compound	Average inhibition male (%) [1, 3] [%]	% inhibition male (individual replicates) R1 [1, 3] [%]	% inhibition male (individual replicates) R3 [1, 3] [%]	% inhibition male (individual replicates) R4 [1, 3] [%]	Average inhibition female (%) [2, 3] [%]	% inhibition female (individual replicates) R1 [2, 3] [%]	% inhibition female (individual replicates) R3 [2, 3] [%]	% inhibition female (individual replicates) R4 [2, 3] [%]	HitlevelM [1, 8]	Activity [1, 7]	HitlevelF [2, 9]	further results
Cl.N[C@@H](CCNC1CCN(c2cccc(C(F)(F)F)c2)CC1)Cc1ccc(F)c(F)c1 [TCMDC-132301]	53.1	61.1	44.2	79.6	52.8	47.6	42.6	73.6				HitlevelM [1, 4]: 2; HitlevelF [2, 5]: 1
CC(O)C1CCCCN1C(=O)c1ccc(-c2ccc(-c3nc4ccccc4[nH]3)s2)cc1 (centres unmarked) [TCMDC-132330]												% inhibition male (individual replicates) R1 [1, 6]: 10.5%; % inhibition male (individual replicates) R3 [1, 6]: 7.6%; % inhibition male (individual replicates) R4 [1, 6]: 19.6%; Average inhibition male (%) [1, 7]: 14.0%; % inhibition female (individual replicates) R1 [2, 6]: 7.4%; % inhibition female (individual replicates) R3 [2, 6]: -27.3%; % inhibition female (individual replicates) R4 [2, 6]: 14.9%; Average inhibition female (%) [2, 7]: -1.0%
CN(C)Cc1ccc(-c2ccc(NC(=O)c3ccc4c(=O)n(Cc5ccccc5)cnc4c3)cc2)cc1 [TCMDC-132361]	62.7	57.2		53.6	36.5	37.4	28.0	35.8				HitlevelM [1, 4]: 3; HitlevelF [2, 5]: 0
COc1ccc(-c2cccc(CNC3CCN(C)CC3)c2)cc1S(=O)(=O)NCc1ccccc1.O=C(O)C(F)(F)F [TCMDC-132375]	31.3	25.4	11.7	56.9	14.0	15.7	4.8	20.5	1	0	0	
Cc1cc(-c2cccc(CNC3CCN(C)CC3)c2)ccc1S(=O)(=O)NCc1ccccc1.O=C(O)C(F)(F)F [TCMDC-132379]	43.8	43.1	25.4	55.6	17.5	20.6	25.5	-4.5	2	0	0	
COc1ccc(CNC2CCN(C)CC2)cc1-c1ccc(S(=O)(=O)NCc2ccccc2)c(C)c1.O=C(O)C(F)(F)F [TCMDC-132480]												Average inhibition male (%) [1, 10]: 78.0%; % inhibition male (individual replicates) R1 [1, 10]: 73.4%; % inhibition male (individual replicates) R3 [1, 10]: 67.7%; % inhibition male (individual replicates) R4 [1, 10]: 91.6%; HitlevelM [1, 11]: 4; Average inhibition female (%) [2, 10]: 36.3%; % inhibition female (individual replicates) R1 [2, 10]: 30.7%; % inhibition female (individual replicates) R3 [2, 10]: 36.3%; % inhibition female (individual replicates) R4 [2, 10]: 41.6%; HitlevelF [2, 12]: 0
CCS(=O)(=O)c1ccc(-c2cnc3[nH]cc(-c4ccc(N)cc4)c3c2)cc1 [TCMDC-132582]	35.5	70.7		-32.7	24.2	25.6	29.8	22.2				HitlevelM [1, 4]: 2; HitlevelF [2, 5]: 0
Cc1cccc2nc(-c3ccc(-c4cccc(CNC5CCN(C)CC5)c4)s3)[nH]c12.O=C(O)C(F)(F)F [TCMDC-132736]	63.8	48.5		67.2	18.0	17.1	23.2	22.3	2	0	0	
CN(CCN)Cc1ccc(-c2ccc(-c3nc4cc(C(F)(F)F)ccc4[nH]3)s2)cc1.O=C(O)C(F)(F)F [TCMDC-132821]	-7.8	-14.8		-7.6	8.7	4.7	20.4	7.1	0	0	0	
CNCCNCc1ccc(-c2ccc(-c3nc4cc(F)ccc4[nH]3)s2)cc1.O=C(O)C(F)(F)F [TCMDC-132829]												Average inhibition male (%) [1, 10]: 66.0%; % inhibition male (individual replicates) R1 [1, 10]: 54.3%; % inhibition male (individual replicates) R4 [1, 10]: 78.8%; HitlevelM [1, 11]: 3; Average inhibition female (%) [2, 10]: 12.3%; % inhibition female (individual replicates) R1 [2, 10]: 11.4%; % inhibition female (individual replicates) R3 [2, 10]: 10.0%; % inhibition female (individual replicates) R4 [2, 10]: 9.0%; HitlevelF [2, 12]: 0
CNCCNCc1cccc(-c2ccc(-c3nc4cc(C(F)(F)F)ccc4[nH]3)s2)c1.O=C(O)C(F)(F)F [TCMDC-132830]	36.6	35.0	16.5	60.2	26.5	19.8	8.2	49.8				HitlevelM [1, 4]: 1; HitlevelF [2, 5]: 0
CNCCNCc1ccc(-c2ccc(-c3nc4cc(C(F)(F)F)ccc4[nH]3)cc2)cc1.O=C(O)C(F)(F)F [TCMDC-132833]	23.6	9.5	12.3	50.2	17.0	21.1	25.6	19.1	1	0	0	
CNCCNCc1cccc(-c2ccc(-c3nc4cc(C(F)(F)F)ccc4[nH]3)cc2)c1.O=C(O)C(F)(F)F [TCMDC-132834]	47.7	40.3	3.4	68.9	13.1	23.3	8.2	10.1	2	0	0	
CNCCNCc1ccc(-c2cccc(-c3nc4cc(F)ccc4[nH]3)c2)cc1.O=C(O)C(F)(F)F [TCMDC-132836]												% inhibition male (individual replicates) R1 [1, 6]: -5.6%; % inhibition male (individual replicates) R4 [1, 6]: -19.2%; Average inhibition male (%) [1, 7]: -13.9%; % inhibition female (individual replicates) R1 [2, 6]: -0.65%; % inhibition female (individual replicates) R3 [2, 6]: 8.4%; % inhibition female (individual replicates) R4 [2, 6]: 2.6%; Average inhibition female (%) [2, 7]: 2.2%
O=C(O)C(F)(F)F.c1cc(CNCCN2CCNCC2)cc(-c2cccc(-c3nc4ccccc4[nH]3)c2)c1 [TCMDC-132859]	12.0	10.9	-9.7	24.9	17.2	18.5	-13.9	47.2	0	0	0	
Fc1ccc2[nH]c(-c3cccc(-c4cccc(CNCCN5CCNCC5)c4)c3)nc2c1.O=C(O)C(F)(F)F [TCMDC-132860]												Average inhibition male (%) [1, 10]: 74.7%; % inhibition male (individual replicates) R1 [1, 10]: 80.2%; % inhibition male (individual replicates) R3 [1, 10]: 48.0%; % inhibition male (individual replicates) R4 [1, 10]: 89.6%; HitlevelM [1, 11]: 3; Average inhibition female (%) [2, 10]: -9.5%; % inhibition female (individual replicates) R1 [2, 10]: 8.6%; % inhibition female (individual replicates) R3 [2, 10]: -31.9%; % inhibition female (individual replicates) R4 [2, 10]: -13.7%; HitlevelF [2, 12]: 0
O=C(O)C(F)(F)F.c1cc(CNCCN2CCNCC2)cc(-c2ccc(-c3nc4ccccc4[nH]3)cc2)c1 [TCMDC-132861]												% inhibition male (individual replicates) R1 [1, 6]: -18.7%; % inhibition male (individual replicates) R4 [1, 6]: -15.3%; Average inhibition male (%) [1, 7]: -11.2%; % inhibition female (individual replicates) R1 [2, 6]: -3.1%; % inhibition female (individual replicates) R3 [2, 6]: -9.9%; % inhibition female (individual replicates) R4 [2, 6]: 9.1%; Average inhibition female (%) [2, 7]: 1.2%
